The results in this text go back to US11479802B2, “Assays for screening activity of modulators of members of the hydroxy steroid (17-beta) dehydrogenase (HSD17B) family” (Regeneron Pharmaceuticals, Inc., priority 2017, dated 2022).

Structures can show the parent of a compound that is named as a salt.

The test has as its target T1, human HSD17B13 (Homo sapiens, UniProt Q7Z5P4).
T1 sequence (Q7Z5P4 20-300): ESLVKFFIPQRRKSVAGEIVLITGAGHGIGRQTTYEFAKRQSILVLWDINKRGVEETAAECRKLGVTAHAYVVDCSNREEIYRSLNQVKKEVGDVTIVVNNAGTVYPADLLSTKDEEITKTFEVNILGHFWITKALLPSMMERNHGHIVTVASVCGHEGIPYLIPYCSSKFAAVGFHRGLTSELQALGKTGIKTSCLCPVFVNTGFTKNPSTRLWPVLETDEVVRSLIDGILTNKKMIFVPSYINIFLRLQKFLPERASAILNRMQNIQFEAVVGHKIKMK
Description: Substrate screening of steroid and bioactive lipid libraries against purified recombinant HSD17B13 (NADH-linked luciferase assay). In kind it is biochemical. The note with it: for HSD17B13 Enzymatic Activity Relative Light Units: 500 μM NAD+, 100 ng enzyme, 3 hours at 23° C.; for HSD17B13 Enzymatic Activity Percent Estradiol Control: normalized to 50 μM estradiol after subtraction of 5% DMSO. A digest of the protocol:
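Substrates (bioactive lipids 5 μM, steroids 50 μM; 5% DMSO) tested with 500 μM NAD+ and 100 ng recombinant human HSD17B13 in 0.2 M Tris-HCl pH 7.5, 3 h, 23° C. Luminescent NADH detection followed 1 h later; RLU normalized to estradiol (50 μM, 100%) and DMSO (0%) controls.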

Where [1] appears, read: Bioactive Lipid Library, 5 μM bioactive lipid (Estradiol Control 50 μM).
[2] abbreviates: Bioactive Lipid Library, 5 μM bioactive lipid.

In the case of `O=C(CCC/C=C\C/C=C\C/C=C\C/C=C\CCCCCO)NCCO` [20-HETE Ethanolamide], the “HSD17B13 Enzymatic Activity Relative Light Units” value under setting [1] came out at 879760 RLU. The “HSD17B13 Enzymatic Activity Percent Estradiol Control” value under setting [2] is reported as 41.89%.

On to `O=C(O)CCC/C=C\C/C=C\C/C=C\C/C=C\CCCCCO` [20-HETE], for which the “HSD17B13 Enzymatic Activity Relative Light Units” value under setting [1] amounted to 332640 RLU. For the same molecule, under setting [2], the “HSD17B13 Enzymatic Activity Percent Estradiol Control” value is listed as 0.57%.

As to `O=C(O)CCC/C=C\C/C=C\C/C=C\C/C=C\CCCCCC(=O)O` [20-carboxy Arachidonic Acid], the “HSD17B13 Enzymatic Activity Relative Light Units” value under setting [1] turned out to be 293760 RLU. Further, the “HSD17B13 Enzymatic Activity Percent Estradiol Control” value under setting [2] is given as −2.36%.

`O=C(O)CCCC/C=C\C[C@@H](O)/C=C/C=C/C=C\[C@@H](O)CCCC(=O)O` [20-carboxy Leukotriene B4]: under setting [1], the “HSD17B13 Enzymatic Activity Relative Light Units” value was 400440 RLU. Further, the “HSD17B13 Enzymatic Activity Percent Estradiol Control” value under setting [2] is listed as 9.28%.

In the case of `O=C(O)CCC[C@H](O)\C=C/C=C/C=C/[C@H](O)C/C=C\CCCCCO` [20-hydroxy Leukotriene B4], under setting [1], the “HSD17B13 Enzymatic Activity Relative Light Units” value is 654120 RLU. Moreover, under setting [2], the “HSD17B13 Enzymatic Activity Percent Estradiol Control” value was determined as 29.33%.

In the case of `O=C(O)CCC/C=C\C[C@H]1C(=O)C[C@@H](O)[C@@H]1/C=C/[C@@H](O)CCCCCO` [20-hydroxy Prostaglandin E2], the “HSD17B13 Enzymatic Activity Relative Light Units” value under setting [1] is given as 348240 RLU. For the same molecule, the “HSD17B13 Enzymatic Activity Percent Estradiol Control” value under setting [2] came out at 5.15%.

Take `O=C(O)CCC/C=C\C[C@@H]1[C@@H](/C=C/[C@@H](O)CCCCCO)[C@H](O)C[C@@H]1O` [20-hydroxy Prostaglandin F2α]: the “HSD17B13 Enzymatic Activity Relative Light Units” value under setting [1] is 378680 RLU. In addition, under setting [2], the “HSD17B13 Enzymatic Activity Percent Estradiol Control” value was 7.56%.

In the case of `C[C@]12C[C@H]3S[C@H]3C[C@@H]1CC[C@@H]1[C@@H]2CC[C@@]2(C)[C@H]1CC[C@@]2(C)O` [(2a,3a,52,17b)-Androstan-17ol,2,3-epithio-17-methyl], where the note is “Steroid Library, 50 μM steroid”, the “HSD17B13 Enzymatic Activity Relative Light Units” value amounted to 100160 RLU and the “HSD17B13 Enzymatic Activity Percent Estradiol Control” value is listed as −1.06%.

In the case of `C[C@]12CCC(=O)C=C1CC[C@@H]1[C@@H]2[C@@H](O)C[C@]2(C=O)[C@@H](C(=O)CO)CC[C@@H]12` [Aldosterone], under “Steroid Library, 50 μM steroid”, the “HSD17B13 Enzymatic Activity Relative Light Units” value is given as 217400 RLU and the “HSD17B13 Enzymatic Activity Percent Estradiol Control” value amounted to 0.99%.

In the case of `C[C@]12CCC(=O)C[C@@H]1CC[C@@H]1[C@@H]2CC[C@]2(C)[C@@H](OC(=O)c3ccccc3)CC[C@@H]12` [Androstanolone 17-benzoate], under “Steroid Library, 50 μM steroid”, the “HSD17B13 Enzymatic Activity Relative Light Units” value amounted to 217200 RLU and the “HSD17B13 Enzymatic Activity Percent Estradiol Control” value is reported as 0.99%.

Turning to `C[C@]12CCC(=O)C=C1CC[C@@H]1[C@@H]2CC[C@]2(C)C(=O)CC[C@@H]12` [Androstenedione], for the setting “Steroid Library, 50 μM steroid”, the “HSD17B13 Enzymatic Activity Relative Light Units” value amounted to 172400 RLU and the “HSD17B13 Enzymatic Activity Percent Estradiol Control” value is reported as 0.21%.

In the case of `O=c1cc(-c2ccc(O)cc2)oc2cc(O)cc(O)c12` [Apigenin], where the note is “Steroid Library, 50 μM steroid”, the “HSD17B13 Enzymatic Activity Relative Light Units” value came out at 24440 RLU and the “HSD17B13 Enzymatic Activity Percent Estradiol Control” value is given as −2.38%.

For `CC[C@H](CC[C@@H](C)[C@H]1CC[C@H]2[C@@H]3CC=C4C[C@@H](O)CC[C@]4(C)[C@H]3CC[C@]12C)C(C)C` [Beta-sitosterol], under “Steroid Library, 50 μM steroid”, the “HSD17B13 Enzymatic Activity Relative Light Units” value turned out to be 168880 RLU and the “HSD17B13 Enzymatic Activity Percent Estradiol Control” value amounted to 0.14%.

In the case of `CCCCC[C@H](O)/C=C/[C@@H]1[C@H]2C/C(=C/CCCC(=O)O)C[C@H]2C[C@H]1O` [Carbaprostacyclin], the “HSD17B13 Enzymatic Activity Relative Light Units” value under setting [1] is reported as 380280 RLU. The “HSD17B13 Enzymatic Activity Percent Estradiol Control” value under setting [2] is reported as 7.68%.

As to `CCCCC[C@H](O)/C=C/[C@H]1CC2CC(C2)[C@@H]1C/C=C\CCCC(=O)O` [Carbocyclic Thromboxane A2], the “HSD17B13 Enzymatic Activity Relative Light Units” value under setting [1] came out at 309000 RLU. Moreover, the “HSD17B13 Enzymatic Activity Percent Estradiol Control” value under setting [2] turned out to be 2.05%.

In the case of `CCCCC[C@H](O)/C=C/[C@H]1[C@H](O)C[C@]2(C)C/C(=C\CCCC(=O)[O-])C[C@H]12.CCCCC[C@H](O)/C=C/[C@H]1[C@H](O)C[C@]2(C)C/C(=C\CCCC(=O)[O-])C[C@H]12.[Ca+2]` [Ciprostene (calcium salt)], the “HSD17B13 Enzymatic Activity Relative Light Units” value under setting [1] was 360560 RLU. Moreover, under setting [2], the “HSD17B13 Enzymatic Activity Percent Estradiol Control” value was found to be 6.12%.

With `C[C@]12C[C@H](O)[C@H]3[C@@H](CCC4=CC(=O)CC[C@@]43C)[C@@H]1CC[C@@H]2C(=O)CO` [Corticosterone], where the note is “Steroid Library, 50 μM steroid”, the “HSD17B13 Enzymatic Activity Relative Light Units” value is 215320 RLU and the “HSD17B13 Enzymatic Activity Percent Estradiol Control” value is recorded as 0.96%.

As to `C[C@]12CCC(=O)C=C1CC[C@@H]1[C@@H]2[C@@H](O)C[C@@]2(C)[C@H]1CC[C@]2(O)C(=O)CO` [Cortisol], where the note is “Steroid Library, 50 μM steroid”, the “HSD17B13 Enzymatic Activity Relative Light Units” value came to 40080 RLU and the “HSD17B13 Enzymatic Activity Percent Estradiol Control” value is −2.10%.

For the molecule `CC(=O)OCC(=O)[C@@]1(O)CC[C@H]2[C@@H]3CCC4=CC(=O)CC[C@]4(C)[C@H]3C(=O)C[C@@]21C` [Cortisone 21-acetate], for the setting “Steroid Library, 50 μM steroid”, the “HSD17B13 Enzymatic Activity Relative Light Units” value is reported as 200240 RLU and the “HSD17B13 Enzymatic Activity Percent Estradiol Control” value stood at 0.69%.

In the case of `C[C@]12CCC(=O)C=C1CC[C@@H]1[C@@H]2C(=O)C[C@@]2(C)[C@H]1CC[C@]2(O)C(=O)CO` [Cortisone], for the setting “Steroid Library, 50 μM steroid”, the “HSD17B13 Enzymatic Activity Relative Light Units” value came out at 204080 RLU and the “HSD17B13 Enzymatic Activity Percent Estradiol Control” value turned out to be 0.76%.

On to `O=P([O-])(O)OC1[C@@H](O)[C@H](OP(=O)([O-])O)C(OP(=O)([O-])O)[C@H](OP(=O)([O-])O)[C@H]1O.[Na+].[Na+].[Na+].[Na+]` (stereo partly drawn) [D-myo-Inositol-1,2,3,5-tetraphosphate (sodium salt)], for which the “HSD17B13 Enzymatic Activity Relative Light Units” value under setting [1] stood at 430640 RLU. Under setting [2], the “HSD17B13 Enzymatic Activity Percent Estradiol Control” value came to 7.98%.

Consider `O=P(O)(O)O[C@@H]1[C@H](OP(=O)(O)O)[C@H](OP(=O)(O)O)[C@@H](O)[C@H](O)[C@H]1OP(=O)(O)O` [D-myo-Inositol-1,2,3,6-tetraphosphate (sodium salt)], for which the “HSD17B13 Enzymatic Activity Relative Light Units” value under setting [1] was found to be 424280 RLU. For the same molecule, the “HSD17B13 Enzymatic Activity Percent Estradiol Control” value under setting [2] was 7.49%.

With `O=P(O)(O)OC1[C@@H](OP(=O)(O)O)[C@H](OP(=O)(O)O)C(O)[C@H](OP(=O)(O)O)[C@H]1OP(=O)(O)O` (stereo partly drawn) [D-myo-Inositol-1,2,4,5,6-pentaphosphate (sodium salt)], the “HSD17B13 Enzymatic Activity Relative Light Units” value under setting [1] was found to be 398080 RLU. Under setting [2], the “HSD17B13 Enzymatic Activity Percent Estradiol Control” value amounted to 5.52%.

For the molecule `O=P(O)(O)O[C@@H]1C(O)[C@@H](OP(=O)(O)O)[C@@H](OP(=O)(O)O)C(O)[C@H]1OP(=O)(O)O` (stereo partly drawn) [D-myo-Inositol-1,2,4,5-tetraphosphate (sodium salt)], under setting [1], the “HSD17B13 Enzymatic Activity Relative Light Units” value amounted to 403880 RLU. Under setting [2], the “HSD17B13 Enzymatic Activity Percent Estradiol Control” value came to 5.95%.

Turning to `O=P(O)(O)OC1[C@H](O)[C@H](OP(=O)(O)O)C(OP(=O)(O)O)[C@H](OP(=O)(O)O)[C@H]1O` (stereo partly drawn) [D-myo-Inositol-1,3,4,5-tetraphosphate (sodium salt)], the “HSD17B13 Enzymatic Activity Relative Light Units” value under setting [1] is listed as 358920 RLU. Further, under setting [2], the “HSD17B13 Enzymatic Activity Percent Estradiol Control” value is listed as 2.56%.

Consider `O=P(O)(O)O[C@@H]1C(O)[C@H](OP(=O)(O)O)[C@@H](O)C(O)[C@H]1O` (stereo partly drawn) [D-myo-Inositol-1,3-diphosphate (sodium salt)], for which the “HSD17B13 Enzymatic Activity Relative Light Units” value under setting [1] is 487280 RLU. For the same molecule, the “HSD17B13 Enzymatic Activity Percent Estradiol Control” value under setting [2] came out at 12.25%.
